Measurements: PubChem BioAssay AID1919015 (Molecular Pharmacology Branch, DTP, NCI, 2023)
Where “and” joins values, the source holds several entries; their conditions need not be identical. Identical values can stand only once.

Test system: OVCAR-5 complex spheroids with HUVEC/MSC, viability, % test/control
Experiment: Anticancer human tumor OVCAR-5 cell line growth inhibition [AhR];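 note: spheroids exposed to compounds for 7 days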;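 for viability, T/C: 100% = DMSO vehicle control wells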
Details: for viability, T/C: stronger effect = lower value
In short: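 Complex tumor spheroids co-cultured with HUVEC and human MSC stroma; AhR antagonists tested in combination with standard-of-care and investigational agents. Top concentration at or near clinical Cmax (else 10 microM), half-log dilutions; growth expressed as percent test/control.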

[1] = curve of first compound, second compound 0.1 µM
[2] = curve of first compound, second compound 0.316 µM
[3] = curve of first compound, second compound 1 µM
[4] = curve of first compound, second compound 3.16 µM
[5] = curve of first compound, second compound 10 µM
[6] = second compound 0.1 µM, first compound 0.00316 µM
[7] = second compound 0.1 µM, first compound 0.01 µM
[8] = second compound 0.1 µM, first compound 0.0316 µM
[9] = second compound 0.1 µM, first compound 0.1 µM
[10] = second compound 0.1 µM, first compound 0.316 µM
[11] = second compound 0.1 µM, first compound 1 µM
[12] = second compound 0.316 µM, first compound 0.00316 µM
[13] = second compound 0.316 µM, first compound 0.01 µM
[14] = second compound 0.316 µM, first compound 0.0316 µM
[15] = second compound 0.316 µM, first compound 0.1 µM
[16] = second compound 0.316 µM, first compound 0.316 µM
[17] = second compound 0.316 µM, first compound 1 µM
[18] = second compound 1 µM, first compound 0.00316 µM
[19] = second compound 1 µM, first compound 0.01 µM
[20] = second compound 1 µM, first compound 0.0316 µM
[21] = second compound 1 µM, first compound 0.1 µM
[22] = second compound 1 µM, first compound 0.316 µM
[23] = second compound 1 µM, first compound 1 µM
[24] = second compound 3.16 µM, first compound 0.00316 µM
[25] = second compound 3.16 µM, first compound 0.01 µM
[26] = second compound 3.16 µM, first compound 0.0316 µM
[27] = second compound 3.16 µM, first compound 0.1 µM
[28] = second compound 3.16 µM, first compound 0.316 µM
[29] = second compound 3.16 µM, first compound 1 µM
[30] = second compound 10 µM, first compound 0.00316 µM
[31] = second compound 10 µM, first compound 0.01 µM
[32] = second compound 10 µM, first compound 0.0316 µM
[33] = second compound 10 µM, first compound 0.1 µM
[34] = second compound 10 µM, first compound 0.316 µM
[35] = second compound 10 µM, first compound 1 µM

For `CC1COCCN1c1cc(-c2ccnn2C)c2ccnc(-c3ccn[nH]3)c2n1` (centres undefined) + Cc1ccccc1N=Nc1ccc(NC(=O)c2ccnn2C)c(C)c1, the IC50 [1] was 0.244 µM, the IC50 [2] was 0.253 µM and the IC50 [3] was 0.284 µM. For the same molecule, the IC50 [4] was 0.269 µM, the IC50 [5] was 0.272 µM and the viability, T/C [6] was 102%. It also gave a viability, T/C [7] of 101%, a viability, T/C [8] of 98.5% and a viability, T/C [9] of 79.9%. For the same molecule, the viability, T/C [10] was 41.4%, the viability, T/C [11] was 26.3% and the viability, T/C [12] was 104%. The viability, T/C [13] was 105%, the viability, T/C [14] was 101% and the viability, T/C [15] was 81.1%. For the same molecule, the viability, T/C [16] was 42.5%, the viability, T/C [17] was 28.2% and the viability, T/C [18] was 108%. The viability, T/C [19] was 110%, the viability, T/C [20] was 101% and the viability, T/C [21] was 87.5%. For the same molecule, the viability, T/C [22] was 45.5%, the viability, T/C [23] was 30.1% and the viability, T/C [24] was 109%. It also gave a viability, T/C [25] of 109%, a viability, T/C [26] of 105% and a viability, T/C [27] of 88.6%. It also gave a viability, T/C [28] of 43.4%, a viability, T/C [29] of 32.5% and a viability, T/C [30] of 105%. For the same molecule, the viability, T/C [31] was 106%, the viability, T/C [32] was 101% and the viability, T/C [33] was 82.2%. It also gave a viability, T/C [34] of 45% and a viability, T/C [35] of 33%.
With `O=C(C=Cc1cccc(S(=O)(=O)Nc2ccccc2)c1)NO` + Cc1ccccc1N=Nc1ccc(NC(=O)c2ccnn2C)c(C)c1 the IC50 [1] was 1.1 µM, the IC50 [2] was 1.08 µM and the IC50 [3] was 1.18 µM. The IC50 [4] was 1.03 µM, the IC50 [5] was 1.06 µM and the viability, T/C [8] was 100%. It also gave a viability, T/C [9] of 89.7%, a viability, T/C [10] of 76.1% and a viability, T/C [11] of 53%. For the same molecule, the viability, T/C (second compound 0.1 µM, first compound 3.16 µM) was 24.8%, the viability, T/C (second compound 0.1 µM, first compound 10 µM) was 5.54% and the viability, T/C [14] was 101%. It also gave a viability, T/C [15] of 97.2%, a viability, T/C [16] of 77.2% and a viability, T/C [17] of 54.2%. It also gave a viability, T/C (second compound 0.316 µM, first compound 3.16 µM) of 21.3%, a viability, T/C (second compound 0.316 µM, first compound 10 µM) of 5.42% and a viability, T/C [20] of 103%. It also gave a viability, T/C [21] of 97.4%, a viability, T/C [22] of 84.8% and a viability, T/C [23] of 54.1%. It also gave a viability, T/C (second compound 1 µM, first compound 3.16 µM) of 22.6%, a viability, T/C (second compound 1 µM, first compound 10 µM) of 5.11% and a viability, T/C [26] of 103%. It also gave a viability, T/C [27] of 99.3%, a viability, T/C [28] of 81% and a viability, T/C [29] of 50.2%. The viability, T/C (second compound 3.16 µM, first compound 3.16 µM) was 21.6%, the viability, T/C (second compound 3.16 µM, first compound 10 µM) was 5.09% and the viability, T/C [32] was 93.4%. For the same molecule, the viability, T/C [33] was 96.2%, the viability, T/C [34] was 76.2% and the viability, T/C [35] was 52%. It also gave a viability, T/C (second compound 10 µM, first compound 3.16 µM) of 22.3% and a viability, T/C (second compound 10 µM, first compound 10 µM) of 5.86%.
With `Nc1ncn(C2CC(O)C(CO)O2)c(=O)n1` (centres undefined) + CC(CO)NC(=O)c1cc(-c2ccc(Cl)cc2)nn(-c2cnn(C)c2)c1=O the IC50 [1] was > 1 µM, the IC50 [2] was > 1 µM and the IC50 [3] was > 1 µM. For the same molecule, the IC50 [4] was > 1 µM, the IC50 [5] was > 1 µM and the viability, T/C [6] was 107%. The viability, T/C [7] was 106%, the viability, T/C [8] was 98% and the viability, T/C [9] was 88.5%. It also gave a viability, T/C [10] of 72.6%, a viability, T/C [11] of 62.4% and a viability, T/C [12] of 107%. For the same molecule, the viability, T/C [13] was 107%, the viability, T/C [14] was 99% and the viability, T/C [15] was 83.2%. It also gave a viability, T/C [16] of 70.8%, a viability, T/C [17] of 62% and a viability, T/C [18] of 116%. For the same molecule, the viability, T/C [19] was 114%, the viability, T/C [20] was 109% and the viability, T/C [21] was 91.6%. For the same molecule, the viability, T/C [22] was 71.3%, the viability, T/C [23] was 66.4% and the viability, T/C [24] was 105%. It also gave a viability, T/C [25] of 99.4%, a viability, T/C [26] of 97.9% and a viability, T/C [27] of 83.7%. For the same molecule, the viability, T/C [28] was 70.6%, the viability, T/C [29] was 59.2% and the viability, T/C [30] was 97.6%. It also gave a viability, T/C [31] of 99.9%, a viability, T/C [32] of 97.4% and a viability, T/C [33] of 88.4%. The viability, T/C [34] was 72.9% and the viability, T/C [35] was 64.2%.
For `CCc1c2c(nc3ccc(O)cc13)-c1cc3c(c(=O)n1C2)COC(=O)[C@]3(O)CC`, the viability, T/C (compound 0.000949 µM) was 90.5% and 88.5% and 79.2%, the viability, T/C (compound 0.003 µM) was 69% and 69.4% and 60.1% and the viability, T/C (compound 0.00949 µM) was 46% and 36.1% and 40.2%. The viability, T/C (compound 0.03 µM) was 45.3% and 36.5% and 41.5%, the viability, T/C (compound 0.0949 µM) was 28.9% and 21.7% and 21.8% and the viability, T/C (compound 0.3 µM) was 12.1% and 8% and 9.04%. For the same molecule, the IC50 (curve of compound) was 0.013 µM and 0.00738 µM and 0.00751 µM.
In the case of `Cn1ncnc1C1c2n[nH]c(=O)c3cc(F)cc(c23)NC1c1ccc(F)cc1` (centres undefined) + CC(CO)NC(=O)c1cc(-c2ccc(Cl)cc2)nn(-c2cnn(C)c2)c1=O, the IC50 [1] is reported as > 0.1 µM, the IC50 [2] is reported as > 0.1 µM and the IC50 [3] is reported as > 0.1 µM. For the same molecule, the IC50 [4] was > 0.1 µM, the IC50 [5] was > 0.1 µM and the viability, T/C (second compound 0.1 µM, first compound 0.000316 µM) was 104%. It also gave a viability, T/C (second compound 0.1 µM, first compound 0.001 µM) of 105%, a viability, T/C [6] of 105% and a viability, T/C [7] of 105%. It also gave a viability, T/C [8] of 104%, a viability, T/C [9] of 101% and a viability, T/C (second compound 0.316 µM, first compound 0.000316 µM) of 104%. It also gave a viability, T/C (second compound 0.316 µM, first compound 0.001 µM) of 110%, a viability, T/C [12] of 106% and a viability, T/C [13] of 107%. For the same molecule, the viability, T/C [14] was 105%, the viability, T/C [15] was 99.7% and the viability, T/C (second compound 1 µM, first compound 0.000316 µM) was 112%. The viability, T/C (second compound 1 µM, first compound 0.001 µM) was 114%, the viability, T/C [18] was 112% and the viability, T/C [19] was 108%. For the same molecule, the viability, T/C [20] was 112%, the viability, T/C [21] was 108% and the viability, T/C (second compound 3.16 µM, first compound 0.000316 µM) was 106%. For the same molecule, the viability, T/C (second compound 3.16 µM, first compound 0.001 µM) was 103%, the viability, T/C [24] was 103% and the viability, T/C [25] was 96.2%. The viability, T/C [26] was 101%, the viability, T/C [27] was 100% and the viability, T/C (second compound 10 µM, first compound 0.000316 µM) was 97.6%. For the same molecule, the viability, T/C (second compound 10 µM, first compound 0.001 µM) was 97.8%, the viability, T/C [30] was 99.5% and the viability, T/C [31] was 95.5%. For the same molecule, the viability, T/C [32] was 93.5% and the viability, T/C [33] was 94.6%.
In the case of `Nc1ccn(C2OC(CO)C(O)C2(F)F)c(=O)n1` (centres undefined), the viability, T/C (compound 0.0316 µM) is reported as 32.6% and 27.9% and 33.8%, the viability, T/C (compound 0.1 µM) is reported as 30.9% and 25.9% and 30.5% and the viability, T/C (compound 0.316 µM) is reported as 31.4% and 27.5% and 30.8%. The viability, T/C (compound 1 µM) was 31.7% and 27.9% and 31.9%, the viability, T/C (compound 3.16 µM) was 32.3% and 29.7% and 33.2% and the viability, T/C (compound 10 µM) was 31.7% and 27.8% and 29.7%. The IC50 (curve of compound) was < 0.0316 µM.
